Columns and labels:
Assay type in all cases: in vivo
kochia (Kochia scoparia) = test: Test C greenhouse herbicide test, postemergence
Procedure, shortened: (§1)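 Ratings are visual scores from 0 (no effect) to 100 (complete control), made against controls 13–15 d after treatment. Postemergence sprays were applied in the greenhouse to plants 2–18 cm tall (1- to 4-leaf stage) in peat-moss/vermiculite potting medium.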

[1] = test system: oat, wild (wild oat, Avena fatua); test: Test C greenhouse herbicide test, postemergence
Procedure, shortened: as §1

[2] = test system: blackgrass (Alopecurus myosuroides); test: Test C greenhouse herbicide test, pre- and postemergence
Procedure, shortened: (§2)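 Percent-control ratings (0 none, 100 complete) came from visual comparison with controls held alongside in the greenhouse for 13–15 d. Treatments covered soil application at sowing and foliar application to young plants 2–18 cm tall.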

corn (Zea mays) = test: as above
Procedure, shortened: as §2

[3] = test system: oilseed rape (Brassica napus); test: as above
Procedure, shortened: as §2

[4] = test system: velvetleaf (Abutilon theophrasti); test: as above
Procedure, shortened: as §2

[5] = test system: johnsongrass (Sorghum halepense); test: as above
Procedure, shortened: as §2

[6] = test system: crabgrass, large (large crabgrass, Digitaria sanguinalis); test: as above
Procedure, shortened: as §2

[7] = test system: ragweed (common ragweed, Ambrosia elatior); test: as above
Procedure, shortened: as §2

[8] = test system: pigweed (Amaranthus retroflexus); test: as above
Procedure, shortened: as §2

[9] = test system: foxtail, giant (giant foxtail, Setaria faberii); test: as above
Procedure, shortened: as §2

[10] = test system: lambsquarters (Chenopodium album); test: as above
Procedure, shortened: as §2

[11] = test system: ryegrass, Italian (Italian ryegrass, Lolium multiflorum); test: as above
Procedure, shortened: as §2

[12] = test system: waterhemp (common waterhemp, Amaranthus rudis); test: as above
Procedure, shortened: as §2

[13] = test system: morningglory (Ipomoea coccinea); test: as above
Procedure, shortened: as §2

soybean (Glycine max) = test: as above
Procedure, shortened: as §2

[14] = Postemergence, 31 g ai/ha, 0 to 100 scale (0 no effect, 100 complete control)
[15] = Postemergence, 125 g ai/ha, scale 0 to 100, 0 is no effect, 100 is complete control
[16] = Postemergence, 250 g ai/ha, scale 0 to 100, 0 no effect, 100 complete control, 13 to 15 d
[17] = postemergence, 62 g ai/ha, scale 0 to 100, 0 no effect, 100 complete control
[18] = Preemergence, 31 g ai/ha, scale 0 to 100, 0 is no effect, 100 is complete control
[19] = Preemergence, 62 g ai/ha, scale 0 to 100, 0 is no effect, 100 is complete control
[20] = Preemergence, 125 g ai/ha, scale 0 to 100, 0 is no effect, 100 is complete control
[21] = Preemergence, 250 g ai/ha, scale 0 to 100 (0 no effect, 100 complete control)

Cc1ccc2ccccc2c1-c1c(O)c(C)nn(C)c1=O [Compound 59]
10: Plant response rating, Soybean (soybean (Glycine max); [15])
25: Plant response rating, Johnsongrass [5, 15] | Plant response rating, Johnsongrass [5, 19] | Plant response rating, Crabgrass, Large [6, 15] | Plant response rating, Crabgrass, Large [6, 18] | Plant response rating, Soybean (soybean (Glycine max); [16]) | Soybean plant response rating (soybean (Glycine max); [21])
65: Blackgrass plant response rating [2, 14] | Plant response rating, Corn (corn (Zea mays); [15]) | Corn plant response rating (corn (Zea mays); [21]) | Plant response rating, Oilseed Rape [3, 18] | Johnsongrass plant response rating [5, 21]
98: Plant response rating, Oat, Wild [1, 16] | Blackgrass plant response rating [2, 21] | Plant response rating, Velvetleaf [4, 20] | Plant response rating, Ragweed [7, 16] | Plant response rating, Pigweed [8, 16] | Plant response rating, Foxtail, Giant [9, 20] | Plant response rating, Lambsquarters [10, 15] | Plant response rating, Lambsquarters [10, 16] | Plant response rating, Waterhemp [12, 15] | Plant response rating, Morningglory [13, 18]
40: Plant response rating, Oilseed Rape [3, 15]
15: Crabgrass, Large plant response rating [6, 14] | Plant response rating, Soybean (soybean (Glycine max); [20]) | Soybean plant response rating (soybean (Glycine max); [17])
100: Velvetleaf plant response rating [4, 21] | Crabgrass, Large plant response rating [6, 21] | Plant response rating, Ragweed [7, 20] | Ragweed plant response rating [7, 21] | Plant response rating, Pigweed [8, 18] | Plant response rating, Pigweed [8, 19] | Plant response rating, Pigweed [8, 20] | Pigweed plant response rating [8, 21] | Foxtail, Giant plant response rating [9, 21] | Plant response rating, Ryegrass, Italian [11, 18] | Plant response rating, Ryegrass, Italian [11, 19] | Plant response rating, Ryegrass, Italian [11, 20] | Ryegrass, Italian plant response rating [11, 21] | Plant response rating, Waterhemp [12, 16] | Plant response rating, Waterhemp [12, 19] | Plant response rating, Waterhemp [12, 20] | Waterhemp plant response rating [12, 21] | Plant response rating, Morningglory [13, 15] | Plant response rating, Morningglory [13, 16] | Plant response rating, Morningglory [13, 19] | Plant response rating, Morningglory [13, 20] | Morningglory plant response rating [13, 21] | Morningglory plant response rating [13, 17]
5: Corn plant response rating (corn (Zea mays); [14]) | Oilseed Rape plant response rating [3, 14] | Johnsongrass plant response rating [5, 14] | Plant response rating, Johnsongrass [5, 18] | Johnsongrass plant response rating [5, 17]
95: Kochia plant response rating (kochia (Kochia scoparia); [14]) | Plant response rating, Oilseed Rape [3, 20] | Oilseed Rape plant response rating [3, 21] | Plant response rating, Velvetleaf [4, 16] | Plant response rating, Ragweed [7, 15] | Plant response rating, Ragweed [7, 19] | Ragweed plant response rating [7, 17] | Plant response rating, Pigweed [8, 15] | Pigweed plant response rating [8, 17] | Plant response rating, Foxtail, Giant [9, 19] | Plant response rating, Lambsquarters [10, 20] | Lambsquarters plant response rating [10, 21] | Lambsquarters plant response rating [10, 17] | Plant response rating, Ryegrass, Italian [11, 16] | Plant response rating, Waterhemp [12, 18] | Morningglory plant response rating [13, 14]
85: Plant response rating, Kochia (kochia (Kochia scoparia); [15]) | Kochia plant response rating (kochia (Kochia scoparia); [17]) | Plant response rating, Blackgrass [2, 15] | Plant response rating, Blackgrass [2, 18] | Plant response rating, Velvetleaf [4, 18] | Velvetleaf plant response rating [4, 17] | Plant response rating, Crabgrass, Large [6, 20] | Plant response rating, Foxtail, Giant [9, 15] | Ryegrass, Italian plant response rating [11, 14] | Waterhemp plant response rating [12, 14]
20: Plant response rating, Corn (corn (Zea mays); [19]) | Crabgrass, Large plant response rating [6, 17]
80: Oat, Wild plant response rating [1, 14] | Blackgrass plant response rating [2, 17] | Plant response rating, Oilseed Rape [3, 19] | Velvetleaf plant response rating [4, 14] | Plant response rating, Foxtail, Giant [9, 18]
75: Oat, Wild plant response rating [1, 17]
45: Corn plant response rating (corn (Zea mays); [17]) | Plant response rating, Johnsongrass [5, 20] | Foxtail, Giant plant response rating [9, 14]
50: Plant response rating, Corn (corn (Zea mays); [16]) | Plant response rating, Corn (corn (Zea mays); [20]) | Oilseed Rape plant response rating [3, 17]
35: Plant response rating, Johnsongrass [5, 16]
60: Plant response rating, Crabgrass, Large [6, 16] | Foxtail, Giant plant response rating [9, 17]
55: Plant response rating, Oilseed Rape [3, 16]
0: Plant response rating, Corn (corn (Zea mays); [18]) | Soybean plant response rating (soybean (Glycine max); [14]) | Plant response rating, Soybean (soybean (Glycine max); [18]) | Plant response rating, Soybean (soybean (Glycine max); [19])
70: Plant response rating, Crabgrass, Large [6, 19] | Plant response rating, Lambsquarters [10, 18]
90: Plant response rating, Kochia (kochia (Kochia scoparia); [16]) | Plant response rating, Oat, Wild [1, 15] | Plant response rating, Blackgrass [2, 16] | Plant response rating, Blackgrass [2, 19] | Plant response rating, Blackgrass [2, 20] | Plant response rating, Velvetleaf [4, 15] | Plant response rating, Velvetleaf [4, 19] | Ragweed plant response rating [7, 14] | Plant response rating, Ragweed [7, 18] | Pigweed plant response rating [8, 14] | Plant response rating, Foxtail, Giant [9, 16] | Lambsquarters plant response rating [10, 14] | Plant response rating, Lambsquarters [10, 19] | Plant response rating, Ryegrass, Italian [11, 15] | Ryegrass, Italian plant response rating [11, 17] | Waterhemp plant response rating [12, 17]

Source: patent US10597388B2, “Pyridazinone herbicides” (FMC CORPORATION, priority 2014, dated 2020)
